Assay results: paper PMC6162447, “Engineering Gain-of-Function Analogues of the Spider Venom Peptide HNTX-I, A Potent Blocker of the hNaV1.7 Sodium Channel” (Toxins, 2018)
“Also recorded” adds a separate entry of the source. Bridge positions count the residues as written; N and C are the ends. Peptide text beside a SMILES is read from it.

How the values were obtained:
hNaV1.7 = biological target: T1, hNaV1.7 (Homo sapiens, UniProt Q15858); assay: Whole-cell patch clamp on hNaV1.7 expressed in HEK 293 cells; type: cell-based; conditions: for IC50: HEK 293 cells transfected with hNaV1.7 plus human β1 and β2 subunits, room temperature (20–25 °C), 50 ms depolarization to −10 mV from holding −100 mV, mean ± SEM
T1 construct: expressed in transfected cells; host or cells: HEK 293
Description: We maintained human embryonic kidney (HEK) 293 cells at 37 °C in a humidified 5% CO2 incubator in Dulbecco’s Modified Eagle’s Medium (DMEM) supplemented with 10% fetal bovine serum (FBS), 2 mM L-glutamine, 100 units/mL penicillin and 100 µg/mL streptomycin. cDNA genes encoding rat Nav1.2 and mouse Nav1.6 were subcloned into the vectors pcDNA3.1, respectively. We subcloned the gene that encodes hNaV1.7 into the vector pcDNA3.1-mod. We transfected the hNaV1.7 channel (3 μg) together with plasmids β1- (1 μg) and β2-eGFP ([…]), which encode the human β1 and β2 subunits, and Nav1.2 and Nav1.6 together with eGFP in HEK 293 cells using Lipofectamine 2000 (Invitrogen, Carlsbad, CA, USA) per the manufacturer’s instructions.
We performed whole-cell recordings using an EPC 10 patch clamp platform (HEKA, Elektronik, Lambrecht, Germany) at room temperature (20–25 °C). We made suction pipettes with access resistance of 2.0–3.0 MΩ from borosilicate glass capillary tubes (VWR micropipettes; VWR Co., West Chester, PA, USA) using a 2-step vertical microelectrode puller (PC-10; Narishige Co., Ltd., Tokyo, Japan) and compensated for voltage errors using 80% serial-resistance compensation. The standard pipette solution contained (in mM): 140 CsCl, 10 NaCl, 1 ethylene glycol-bis (β-aminoethyl ether)-N,N,N′,N′-tetraacetic acid (EGTA), and 10 HEPES (pH 7.4). The bath solution contained (in mM): 140 NaCl, 2 CaCl2, 1 MgCl2, 5 KCl, 20 4-(2-hydroxyethyl)-1-piperazineethanesulfonic acid (HEPES) and 10 glucose (pH 7.4). We purchased all chemicals from Sigma-Aldrich (St. Louis, MO, USA) and dissolved them in water. Data were acquired using PATCHMASTER software version 2x73 (HEKA Elektronik Dr. Schulze GmbH, Lambrecht, Germany). We filtered macroscopic sodium currents at 5 kHz and sampled them at 20 kHz. We acquired voltage clamp recordings 5 min after establishing a whole-cell configuration to allow adequate equilibration between the micropipette solution and the cell interior. We elicited channel current by 50 milliseconds of depolarization potential to −10 mV from the holding voltage of −100 mV.
We analyzed the data using Igor Pro software version 6.10A (WaveMetrics, Lake Oswego, OR, USA), Sigmaplot software version 10 (Sigma, St. Louis, MO, USA), OriginPro software version 8 (OriginLab Corp., Northampton, MA, USA) and Prism software version 5 (GraphPad Software, San Diego, CA, USA). Concentration–response curves were fitted using the following Hill logistic equation:y = fmax − (fmax − fmin)/(1 + (x/IC50)^n)(1) where fmax and fmin respectively represent the channel’s maximum and minimum responses to toxins, fmin was set to 0, x represents toxin concentration and n is an empirical Hill coefficient. All quantitative results are presented as mean ± standard error of the mean (SEM).

[1] = tested on: mammalian voltage-gated sodium channels (VGSCs); conditions: including hNaV1.7; cited from earlier work
Description: Pain is a medical condition that interferes with normal human life and work and reduces human well-being worldwide. Human voltage-gated sodium channel NaV1.7 (hNaV1.7) is a compelling target that plays a key role in human pain signaling. […] We engineered analogues of HNTX-I based on sequence conservation in NaSpTx family 1. Substitution of Asn for Ser at position 23 or Asp for His at ... || Previously, we reported the identification of 33-residue peptide µ-TRTX-Hhn2b (HNTX-I), a member of NaSpTx family 1, from the venom of the spider Selenocosmia hainana. Although the amino acid sequence of this family is highly conserved, HNTX-I has shown weak affinity on insect sodium channels and no effect on mammalian voltage-gated sodium channels (VGSCs), unlike the majority of peptide toxins in NaSpTx family 1 [20]. In this study, we used HNTX-I as a framework and engineered analogues of it based on sequence conservation in the family. Ultimately, we engineered a gain-of-function analogue ...

insect sodium channels = conditions: cited from earlier work
Description: Previously, we reported the identification of 33-residue peptide µ-TRTX-Hhn2b (HNTX-I), a member of NaSpTx family 1, from the venom of the spider Selenocosmia hainana. Although the amino acid sequence of this family is highly conserved, HNTX-I has shown weak affinity on insect sodium channels and no effect on mammalian voltage-gated sodium channels (VGSCs), unlike the majority of peptide toxins in NaSpTx family 1 [20]. In this study, we used HNTX-I as a framework and engineered analogues of it based on sequence conservation in the family. Ultimately, we engineered a gain-of-function analogue ...

T1 sequence (O60939 30-215): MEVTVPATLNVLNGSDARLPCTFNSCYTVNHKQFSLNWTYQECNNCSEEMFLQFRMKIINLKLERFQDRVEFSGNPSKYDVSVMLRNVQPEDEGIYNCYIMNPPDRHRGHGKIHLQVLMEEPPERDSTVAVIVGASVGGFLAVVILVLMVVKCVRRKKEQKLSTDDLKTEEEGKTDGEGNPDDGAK
T1 sequence (Q07699 19-218, further chain): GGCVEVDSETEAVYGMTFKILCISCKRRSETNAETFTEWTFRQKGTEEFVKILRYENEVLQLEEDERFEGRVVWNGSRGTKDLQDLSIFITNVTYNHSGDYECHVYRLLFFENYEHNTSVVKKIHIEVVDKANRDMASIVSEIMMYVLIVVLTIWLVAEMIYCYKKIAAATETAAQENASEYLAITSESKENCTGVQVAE
T1 sequence (Q15858 other isoform, or with tags, fused parts or gaps): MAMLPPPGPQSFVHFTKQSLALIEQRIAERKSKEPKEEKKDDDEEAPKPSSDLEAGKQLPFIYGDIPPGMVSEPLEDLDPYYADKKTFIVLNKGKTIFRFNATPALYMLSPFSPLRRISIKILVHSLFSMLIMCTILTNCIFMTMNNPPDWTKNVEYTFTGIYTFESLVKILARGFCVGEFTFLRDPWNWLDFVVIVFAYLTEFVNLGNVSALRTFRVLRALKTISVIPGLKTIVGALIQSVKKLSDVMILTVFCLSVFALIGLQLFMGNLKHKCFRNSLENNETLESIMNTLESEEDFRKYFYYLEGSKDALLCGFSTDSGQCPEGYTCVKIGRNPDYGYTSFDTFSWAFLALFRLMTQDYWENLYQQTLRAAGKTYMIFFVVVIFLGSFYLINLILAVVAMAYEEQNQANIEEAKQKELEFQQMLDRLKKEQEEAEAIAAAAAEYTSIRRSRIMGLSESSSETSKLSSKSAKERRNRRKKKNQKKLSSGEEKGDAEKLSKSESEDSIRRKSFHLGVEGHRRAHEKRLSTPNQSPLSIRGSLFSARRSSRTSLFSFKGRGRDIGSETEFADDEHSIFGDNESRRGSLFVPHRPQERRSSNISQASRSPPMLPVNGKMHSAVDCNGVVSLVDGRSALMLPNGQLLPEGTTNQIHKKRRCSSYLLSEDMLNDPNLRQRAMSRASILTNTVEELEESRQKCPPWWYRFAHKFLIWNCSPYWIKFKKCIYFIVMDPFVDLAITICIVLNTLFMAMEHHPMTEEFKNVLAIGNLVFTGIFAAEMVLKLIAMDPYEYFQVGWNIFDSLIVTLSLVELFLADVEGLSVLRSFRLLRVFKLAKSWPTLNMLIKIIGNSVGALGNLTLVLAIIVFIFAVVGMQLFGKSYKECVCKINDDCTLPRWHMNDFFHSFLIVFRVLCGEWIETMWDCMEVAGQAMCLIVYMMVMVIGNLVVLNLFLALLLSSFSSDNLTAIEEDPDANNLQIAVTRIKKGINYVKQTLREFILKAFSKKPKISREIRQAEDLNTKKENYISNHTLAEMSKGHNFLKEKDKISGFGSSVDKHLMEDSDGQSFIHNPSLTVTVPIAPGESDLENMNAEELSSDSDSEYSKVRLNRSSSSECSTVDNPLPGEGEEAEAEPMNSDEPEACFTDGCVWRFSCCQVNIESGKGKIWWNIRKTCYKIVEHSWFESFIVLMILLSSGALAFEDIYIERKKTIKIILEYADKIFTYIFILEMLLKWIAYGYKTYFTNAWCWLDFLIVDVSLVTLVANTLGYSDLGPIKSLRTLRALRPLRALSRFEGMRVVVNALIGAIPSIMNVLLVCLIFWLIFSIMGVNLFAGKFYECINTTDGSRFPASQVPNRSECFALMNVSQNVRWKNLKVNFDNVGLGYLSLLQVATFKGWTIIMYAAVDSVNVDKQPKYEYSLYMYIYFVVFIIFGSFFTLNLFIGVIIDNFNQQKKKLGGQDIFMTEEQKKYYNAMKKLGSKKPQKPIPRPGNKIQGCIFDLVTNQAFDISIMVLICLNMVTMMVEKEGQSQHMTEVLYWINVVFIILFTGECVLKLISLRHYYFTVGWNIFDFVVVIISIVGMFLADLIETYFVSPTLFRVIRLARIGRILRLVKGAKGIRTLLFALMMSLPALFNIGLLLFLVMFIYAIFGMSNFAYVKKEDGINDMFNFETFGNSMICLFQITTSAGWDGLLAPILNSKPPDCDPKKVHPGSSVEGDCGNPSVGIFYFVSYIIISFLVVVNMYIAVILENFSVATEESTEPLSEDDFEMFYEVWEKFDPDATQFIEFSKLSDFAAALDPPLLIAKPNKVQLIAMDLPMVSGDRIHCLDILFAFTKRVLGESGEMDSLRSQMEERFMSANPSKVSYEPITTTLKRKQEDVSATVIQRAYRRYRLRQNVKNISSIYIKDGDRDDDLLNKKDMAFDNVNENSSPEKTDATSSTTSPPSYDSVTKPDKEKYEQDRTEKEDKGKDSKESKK

SMILES	IC50 (hNaV1.7; n ≥ 3, SEM)	Effect on mammalian voltage-gated sodium channels (VGSCs) [1]	Affinity on insect sodium channels (insect sodium channels)	Activity on NaV1.7 at a concentration of 10 µM (hNaV1.7; 10 µM peptide, HEK 293 cells (Figure 2A–C))	IC50 (hNaV1.7; n ≥ 3)
CC(C)C[C@H](NC(=O)[C@H](CC(C)C)NC(=O)[C@@H](NC(=O)[C@H](CCCCN)NC(=O)[C@@H]1CSSC[C@@H]2NC(=O)[C@H](CCC(=O)O)NC(=O)[C@H](CC(N)=O)NC(=O)[C@H](CCCCN)NC(=O)CNC(=O)[C@@H]3CCCN3C(=O)[C@H](C(C)C)NC(=O)[C@@H]3CSSC[C@H](NC(=O)[C@H](C)NC(=O)[C@H](Cc4ccc(O)cc4)NC(=O)CNC(=O)[C@H](CO)NC(=O)[C@H](CSSC[C@H](NC(=O)[C@@H](N)CCC(=O)O)C(=O)N[C@@H](CCCCN)C(=O)NCC(=O)N[C@@H](Cc4ccccc4)C(=O)NCC(=O)N[C@@H](CCCCN)C(=O)N[C@@H](CO)C(=O)N3)NC2=O)C(=O)N[C@@H](CO)C(=O)N[C@@H](CO)C(=O)N[C@@H](CCCNC(=N)N)C(=O)N[C@@H](CC(=O)O)C(=O)N[C@@H](CCCCN)C(=O)N[C@@H](Cc2c[nH]c3ccccc23)C(=O)N1)C(C)C)C(=O)O [N23S] (H-ECKGFGKSCVPGKNECCSGYACSSRDKWCKVLL-OH; disulfide 2-17, 9-22, 16-29)	0.435 ± 0.072 µM				
CC(C)C[C@H](NC(=O)[C@H](CC(C)C)NC(=O)[C@@H](NC(=O)[C@H](CCCCN)NC(=O)[C@@H]1CSSC[C@@H]2NC(=O)[C@H](CCC(=O)O)NC(=O)[C@H](CC(N)=O)NC(=O)[C@H](CCCCN)NC(=O)CNC(=O)[C@@H]3CCCN3C(=O)[C@H](C(C)C)NC(=O)[C@@H]3CSSC[C@H](NC(=O)[C@H](C)NC(=O)[C@H](Cc4ccc(O)cc4)NC(=O)CNC(=O)[C@H](CO)NC(=O)[C@H](CSSC[C@H](NC(=O)[C@@H](N)CCC(=O)O)C(=O)N[C@@H](CCCCN)C(=O)NCC(=O)N[C@@H](Cc4ccccc4)C(=O)NCC(=O)N[C@@H](CCCCN)C(=O)N[C@@H](CO)C(=O)N3)NC2=O)C(=O)N[C@@H](CO)C(=O)N[C@@H](CO)C(=O)N[C@@H](CCCNC(=N)N)C(=O)N[C@@H](Cc2c[nH]cn2)C(=O)N[C@@H](CCCCN)C(=O)N[C@@H](Cc2c[nH]c3ccccc23)C(=O)N1)C(C)C)C(=O)O [N23S–D26H] (H-ECKGFGKSCVPGKNECCSGYACSSRHKWCKVLL-OH; disulfide 2-17, 9-22, 16-29)	0.079 ± 0.004 µM				
CC(C)C[C@H](NC(=O)[C@H](Cc1c[nH]c2ccccc12)NC(=O)[C@@H](NC(=O)[C@H](CCCCN)NC(=O)[C@@H]1CSSC[C@@H]2NC(=O)[C@H](CCC(=O)O)NC(=O)[C@H](CC(N)=O)NC(=O)[C@H](CCCCN)NC(=O)CNC(=O)[C@@H]3CCCN3C(=O)[C@H](C(C)C)NC(=O)[C@@H]3CSSC[C@H](NC(=O)[C@H](C)NC(=O)[C@H](Cc4ccc(O)cc4)NC(=O)CNC(=O)[C@H](CO)NC(=O)[C@H](CSSC[C@H](NC(=O)[C@@H](N)CCC(=O)O)C(=O)N[C@@H](CCCCN)C(=O)NCC(=O)N[C@@H](Cc4ccccc4)C(=O)NCC(=O)N[C@@H](CCCCN)C(=O)N[C@@H](CO)C(=O)N3)NC2=O)C(=O)N[C@@H](CO)C(=O)N[C@@H](CO)C(=O)N[C@@H](CCCNC(=N)N)C(=O)N[C@@H](Cc2c[nH]cn2)C(=O)N[C@@H](CCCCN)C(=O)N[C@@H](Cc2c[nH]c3ccccc23)C(=O)N1)C(C)C)C(=O)O [N23S–D26H–L32W] (H-ECKGFGKSCVPGKNECCSGYACSSRHKWCKVWL-OH; disulfide 2-17, 9-22, 16-29)	0.071 ± 0.005 µM				
CC(C)C[C@H](NC(=O)[C@H](CC(C)C)NC(=O)[C@@H](NC(=O)[C@H](CCCCN)NC(=O)[C@@H]1CSSC[C@@H]2NC(=O)[C@H](CCC(=O)O)NC(=O)[C@H](CC(N)=O)NC(=O)[C@H](CCCCN)NC(=O)CNC(=O)[C@@H]3CCCN3C(=O)[C@H](C(C)C)NC(=O)[C@@H]3CSSC[C@H](NC(=O)[C@H](C)NC(=O)[C@H](Cc4ccc(O)cc4)NC(=O)CNC(=O)[C@H](CO)NC(=O)[C@H](CSSC[C@H](NC(=O)[C@@H](N)CCC(=O)O)C(=O)N[C@@H](CCCCN)C(=O)NCC(=O)N[C@@H](Cc4ccccc4)C(=O)NCC(=O)N[C@@H](CCCCN)C(=O)N[C@@H](CO)C(=O)N3)NC2=O)C(=O)N[C@@H](CC(N)=O)C(=O)N[C@@H](CO)C(=O)N[C@@H](CCCNC(=N)N)C(=O)N[C@@H](CC(=O)O)C(=O)N[C@@H](CCCCN)C(=O)N[C@@H](Cc2c[nH]c3ccccc23)C(=O)N1)C(C)C)C(=O)O [Native HNTX-I] (H-ECKGFGKSCVPGKNECCSGYACNSRDKWCKVLL-OH; disulfide 2-17, 9-22, 16-29 (inferred); N-terminus and C-terminus assumed)		negligible activity; also recorded: no effect	weak affinity	negligible activity	> 10 µM
